The text below walks through data of patent US9365588B2, “Benzoxazines as modulators of ion channels” (Vertex Pharmaceuticals Incorporated, priority 2011, dated 2016).

Usually IC50 stands for the concentration at which inhibition is half-maximal.

This test concerns the target human NaV 1.7 (Homo sapiens, UniProt Q15858). Briefly: E-VIPR optical membrane potential assay with electrical stimulation. The class given is cell-based. The settings on record: sodium channel inhibition; read-out: Binned Activity Data (IC50). The source says: Assays for Detecting and Measuring NaV Inhibition Properties of Compound E-VIPR Optical Membrane Potential Assay Method with Electrical Stimulation
Sodium channels are voltage-dependent proteins that can be activated by inducing membrane voltage changes by applying electric fields. The electrical stimulation instrument and methods of use are described in Ion Channel Assay Methods PCT/US01/21652, herein incorporated by reference and are referred to as E-VIPR. The instrument comprises a microtiter plate handler, an optical system for exciting the coumarin dye while simultaneously recording the coumarin and oxonol emissions, a waveform generator, a current- or voltage-controlled amplifier, and a device for inserting electrodes in well. Under integrated computer control, this instrument passes user-programmed electrical stimulus protocols to cells within the wells of the microtiter plate.
24 hours before the assay on E-VIPR, HEK cells expressing human NaV subtype, like NaV 1.7, are seeded in 384-well poly-lysine coated plates at 15,000-20,000 cells per well. Other subtypes are performed in an analogous mode in a cell line expressing the NaV of interest. HEK cells are grown in media (exact composition is specific to each cell type and NaV subtype) supplemented with 10% FBS (Fetal Bovine Serum, qualified; GibcoBRL #16140-071) and 1% Pen-Strep (Penicillin-Streptomycin; GibcoBRL #15140-122). Cells are grown in vented cap flasks, in 90% humidity and 10% CO2, to 100% confluence. They are usually split by trypsinization 1:10 or 1:20, depending on scheduling needs, and grown for 2-3 days before the next split.
Bath1 buffer. Glucose 10 mM (1.8 g/L), Magnesium Chloride (Anhydrous), 1 mM (0.095 g/L), Calcium Chloride, 2 mM (0.222 g/L), HEPES 10 mM (2.38 g/L), Potassium Chloride, 4.5 mM (0.335 g/L), Sodium Chloride 160 mM (9.35 g/L).
Hexyl Dye Solution: Bath1 Buffer+0.5% β-cyclodextrin (make this prior to use, Sigma #C4767), 8 μM CC2-DMPE+2.5 μM DiSBAC6(3). To make the solution Add volume of 10% Pluronic F127 stock equal to volumes of CC2-DMPE+DiSBAC6(3). The order of preparation is first mix Pluronic and CC2-DMPE, then add DiSBAC6(3) while vortexing, then add Bath1+β-Cyclodextrin.
1) Pre-spot compounds (in neat DMSO) into compound plates. Vehicle control (neat DMSO), the positive control (20 mM DMSO stock tetracaine, 125 μM final in assay) and test compounds are added to each well at 160× desired final concentration in neat DMSO. Final compound plate volume will be 80 μL (80-fold intermediate dilution from 1 μL DMSO spot; 160-fold final dilution after transfer to cell plate). Final DMSO concentration for all wells in assay is 0.625%.
2) Prepare Hexyl Dye Solution.
3) Prepare cell plates. On the day of the assay, medium is aspirated and cells are washed three times with 100 μL of Bath1 Solution, maintaining 25 μL residual volume in each well.
4) Dispense 25 μL per well of Hexyl Dye Solution into cell plates. Incubate for 20-35 minutes at room temp or ambient conditions.
5) Dispense 80 μL per well of Bath1 into compound plates. Acid Yellow-17 (1 mM) is added and Potassium Chloride can be altered from 4.5 to 20 mM depending on the NaV subtype and assay sensitivity.
6) Wash cell plates three times with 100 μL per well of Bath1, leaving 25 μL of residual volume. Then transfer 25 uL per well from Compound Plates to Cell Plates. Incubate for 20-35 minutes at room temp/ambient condition
7) Read Plate on E-VIPR. Use the current-controlled amplifier to deliver stimulation wave pulses for typically 9 seconds and a scan rate of 400 Hz. A pre-stimulus recording is performed for 0.5 seconds to obtain the un-stimulated intensities baseline. The stimulatory waveform is applied for 9 seconds followed by 0.5 seconds of post-stimulation recording to examine the relaxation to the resting state. […]

Sequence of human NaV 1.7 (Q15858 whole entry): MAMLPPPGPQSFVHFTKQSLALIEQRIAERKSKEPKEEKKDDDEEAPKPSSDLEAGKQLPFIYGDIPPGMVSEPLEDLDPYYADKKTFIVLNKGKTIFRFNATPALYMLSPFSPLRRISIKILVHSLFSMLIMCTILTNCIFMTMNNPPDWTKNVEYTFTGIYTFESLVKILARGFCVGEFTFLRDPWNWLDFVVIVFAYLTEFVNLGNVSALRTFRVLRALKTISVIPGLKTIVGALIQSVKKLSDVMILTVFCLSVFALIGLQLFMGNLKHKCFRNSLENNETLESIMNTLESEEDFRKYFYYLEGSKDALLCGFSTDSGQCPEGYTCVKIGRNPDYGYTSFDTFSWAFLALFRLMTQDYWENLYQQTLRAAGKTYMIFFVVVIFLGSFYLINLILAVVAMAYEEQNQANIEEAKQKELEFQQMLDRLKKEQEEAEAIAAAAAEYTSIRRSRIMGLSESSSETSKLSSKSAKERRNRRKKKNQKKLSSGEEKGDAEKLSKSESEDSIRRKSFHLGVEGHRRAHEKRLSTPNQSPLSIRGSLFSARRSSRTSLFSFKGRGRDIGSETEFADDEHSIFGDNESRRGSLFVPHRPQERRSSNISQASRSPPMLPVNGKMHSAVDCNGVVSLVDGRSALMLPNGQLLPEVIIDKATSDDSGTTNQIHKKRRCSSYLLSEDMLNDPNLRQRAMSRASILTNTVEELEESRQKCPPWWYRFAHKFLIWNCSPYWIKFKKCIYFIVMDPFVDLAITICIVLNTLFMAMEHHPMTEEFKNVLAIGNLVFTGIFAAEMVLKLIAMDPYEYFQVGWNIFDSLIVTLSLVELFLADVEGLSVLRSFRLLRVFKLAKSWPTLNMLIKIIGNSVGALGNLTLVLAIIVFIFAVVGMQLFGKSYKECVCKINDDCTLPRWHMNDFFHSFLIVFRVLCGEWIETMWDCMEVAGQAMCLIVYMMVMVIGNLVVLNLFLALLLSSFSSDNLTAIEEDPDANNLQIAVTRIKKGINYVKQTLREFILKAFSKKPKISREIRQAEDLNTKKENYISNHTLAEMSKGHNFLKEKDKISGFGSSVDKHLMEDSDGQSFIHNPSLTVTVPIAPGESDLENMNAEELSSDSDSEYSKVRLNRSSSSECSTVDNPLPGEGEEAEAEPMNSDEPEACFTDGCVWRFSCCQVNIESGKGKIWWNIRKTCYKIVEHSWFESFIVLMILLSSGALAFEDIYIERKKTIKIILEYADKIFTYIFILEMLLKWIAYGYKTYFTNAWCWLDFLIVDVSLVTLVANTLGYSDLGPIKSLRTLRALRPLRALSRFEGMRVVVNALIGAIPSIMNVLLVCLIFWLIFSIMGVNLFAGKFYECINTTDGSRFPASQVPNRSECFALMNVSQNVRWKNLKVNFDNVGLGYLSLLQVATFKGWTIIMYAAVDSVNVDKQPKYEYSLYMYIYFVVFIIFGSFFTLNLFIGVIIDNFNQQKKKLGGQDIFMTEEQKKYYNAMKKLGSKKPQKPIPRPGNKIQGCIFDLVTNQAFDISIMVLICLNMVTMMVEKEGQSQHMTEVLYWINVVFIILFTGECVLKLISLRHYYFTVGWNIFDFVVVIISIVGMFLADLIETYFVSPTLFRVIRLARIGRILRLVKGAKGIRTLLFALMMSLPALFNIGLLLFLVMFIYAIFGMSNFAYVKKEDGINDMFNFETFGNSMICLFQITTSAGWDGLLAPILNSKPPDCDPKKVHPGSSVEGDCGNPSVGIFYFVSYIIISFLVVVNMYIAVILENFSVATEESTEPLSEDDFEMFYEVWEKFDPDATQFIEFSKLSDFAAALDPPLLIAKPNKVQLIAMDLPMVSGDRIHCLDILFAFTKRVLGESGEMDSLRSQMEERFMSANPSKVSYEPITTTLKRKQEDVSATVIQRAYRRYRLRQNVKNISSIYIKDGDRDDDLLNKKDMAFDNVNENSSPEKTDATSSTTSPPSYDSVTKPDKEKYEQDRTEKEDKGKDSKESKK

Consider `CC[C@H](C)Oc1ccc(C(=O)N2CCC3(CC2)Oc2ccccc2-n2cccc23)cc1C(F)(F)F` [Compound 126], for which the 50% inhibitory concentration (IC50) is no more than 2 µM.

As for `CC(C)(Oc1ccc(C(=O)N2CCC3(CC2)Oc2ccccc2-n2c(C#N)ccc23)cc1)C(=O)O` [Compound 334], the IC50 is greater than 5 µM.

Turning to `COc1ccc(-n2ncc(C(=O)N3CCC4(CC3)Oc3ccccc3-c3c4cnn3C)c2C)cc1` [Compound 601], the IC50 is no more than 2 µM.

`Cc1cccc(C(=O)N2CCC3(CC2)Oc2ccccc2-c2c3cnn2C)c1OC(C)C` [Compound 608]: the half-maximal inhibitory concentration (IC50) was no more than 2 µM.

On to `CC(C)Oc1ccc(C(=O)N2CCC3(CC2)Oc2ccccc2-n2cccc23)cc1C(N)=O` [Compound 517], for which the IC50 is no more than 2 µM.

With `Cc1cc(C(=O)N2CCC3(CC2)Oc2ccccc2-n2c(C#N)ccc23)ccc1S(=O)(=O)C(C)C` [Compound 363], the IC50 was no more than 2 µM.

`O=C(c1cccnc1Oc1ccc(F)cc1)N1CCC2(CC1)Oc1ccccc1-n1c(C(F)(F)F)ccc12` [Compound 472]: the half-maximal inhibitory concentration (IC50) was no more than 2 µM.

As for `COCCOc1ccc(C(=O)N2CCC3(CC2)Oc2ccccc2-c2c3cnn2C)cc1Cl` [Compound 587], the concentration for half-maximal inhibition (IC50) was no more than 2 µM.

Regarding `Cc1cc(C(=O)N2CCC3(CC2)Oc2cc(Cl)ccc2-c2c3cnn2C)ccc1OC(C)C` [Compound 370], the IC50 is no more than 2 µM.

For `COc1cc(C(=O)N2CCC3(CC2)Oc2ccccc2-c2c3cnn2C)ccc1OC[C@H](C)OC` [Compound 146], the IC50 was no more than 2 µM.

`COCCOc1ccc(C(=O)N2CCC3(CC2)Oc2ccccc2-n2c(C(F)(F)F)ccc23)cc1OC` [Compound 223]: the IC50 is no more than 2 µM.

With `CCn1ncc2c1-c1ccccc1OC21CCN(C(=O)c2ccc(S(=O)(=O)C(C)C)cc2)CC1` [Compound 253], the 50% inhibitory concentration (IC50) is no more than 2 µM.

In the case of `COc1cc(C(=O)N2CCC3(CC2)Oc2ccccc2-n2cccc23)ccc1OCC(=O)O` [Compound 585], the IC50 was 2 to 5 µM.

`COc1cc(C(=O)N2CCC3(CC2)Oc2ccccc2-c2c3cnn2C)ccc1OC[C@@H](C)OC` [Compound 668]: the IC50 is no more than 2 µM.

On to `O=C(c1ccccc1OC(F)F)N1CCC2(CC1)Oc1ccccc1-n1c(C(F)(F)F)ccc12` [Compound 618], for which the IC50 is no more than 2 µM.

As to `N#Cc1ccc2n1-c1ccccc1OC21CCN(C(=O)c2ccccc2C(F)F)CC1` [Compound 401], the IC50 is no more than 2 µM.

As for `CC(C)(CO)S(=O)(=O)c1ccc(C(=O)N2CCC3(CC2)Oc2ccccc2-n2c(C(F)(F)F)ccc23)cc1` [Compound 685], the IC50 was in the range of 2 to 5 µM.

As to `COc1cc(C(=O)N2CCC3(CC2)Oc2cc(Cl)ccc2-n2cccc23)ccc1C(C)(C)C` [Compound 529], the IC50 is no more than 2 µM.

In the case of `N#Cc1cc(F)cc(C(=O)N2CCC3(CC2)Oc2cc(Cl)ccc2-n2cccc23)c1` [Compound 304], the half-inhibitory concentration (IC50) is no more than 2 µM.

Regarding `COCCOc1ccc(C(=O)N2CCC3(CC2)Oc2ccccc2-n2c(C(C)=O)ccc23)cc1OC` [Compound 820], the IC50 is no more than 2 µM.

Consider `O=C(c1ccc(OC(F)F)cc1)N1CCC2(CC1)Oc1ccccc1-n1c(C(F)(F)F)ccc12` [Compound 341], for which the IC50 was greater than 5 µM.

With `COc1cc(C(=O)N2CCC3(CC2)Oc2cc(F)ccc2-n2cccc23)ccc1OC[C@@H](C)OC` [Compound 30], the 50% inhibitory concentration (IC50) is no more than 2 µM.

`CCOc1cccc(C(=O)N2CCC3(CC2)Oc2ccccc2-n2c(C#N)ccc23)c1F` [Compound 485]: the IC50 is no more than 2 µM.

In the case of `CC(C)(C)c1ccc(C(=O)N2CCC3(CC2)Oc2cc(Cl)ccc2-n2cccc23)cc1C#N` [Compound 220], the IC50 is no more than 2 µM.

Consider `COc1cc(C(=O)N2CCC3(CC2)Oc2cccnc2-n2cccc23)ccc1OCCC(C)C` [Compound 165], for which the half-maximal inhibitory concentration (IC50) is no more than 2 µM.

For `COc1cc(C(=O)N2CCC3(CC2)Oc2cc(Cl)ccc2-n2cccc23)ccc1OCC(C)(C)OC` [Compound 199], the IC50 is no more than 2 µM.

Take `COc1ccccc1C(=O)N1CCC2(CC1)Oc1cc(F)ccc1-c1c2cnn1C` [Compound 845]: the IC50 was no more than 2 µM.

As to `COc1ccc(C(=O)N2CCC3(CC2)Oc2ccccc2-c2c3ccn2C)cc1C(F)(F)F` [Compound 568], the IC50 was no more than 2 µM.

On to `COC(C)(C)c1ccc(C(=O)N2CCC3(CC2)Oc2cc(F)ccc2-n2cccc23)cc1C` [Compound 166], for which the IC50 is no more than 2 µM.

For `O=C(c1ccccc1OC(F)F)N1CCC2(CC1)Oc1ccccc1-c1nn(C(F)(F)F)cc12` [Compound 752], the IC50 was no more than 2 µM.

Take `COc1cc(OC(F)(F)F)ccc1C(=O)N1CCC2(CC1)Oc1ccccc1-c1c2cnn1C` [Compound 121]: the IC50 was no more than 2 µM.

With `CCn1ncc2c1-c1ccccc1OC21CCN(C(=O)c2cccc(F)c2OC(F)F)CC1` [Compound 528], the IC50 is no more than 2 µM.

As to `Cc1ccc2c(c1)OC1(CCN(C(=O)c3ccc(OC(C)C)c(CO)c3)CC1)c1ccc(C#N)n1-2` [Compound 375], the IC50 was no more than 2 µM.

On to `CC(C)Oc1ccc(C(=O)N2CCC3(CC2)Oc2ccccc2-c2nn(C)cc23)cc1CO` [Compound 276], for which the IC50 is no more than 2 µM.

Regarding `Cc1nc2ccc(C(=O)N3CCC4(CC3)Oc3ccccc3-n3c(C(F)(F)F)ccc34)cc2s1` [Compound 503], the half-maximal inhibitory concentration (IC50) is no more than 2 µM.

On to `Cc1cc(C(=O)N2CCC3(CC2)Oc2ccccc2-n2cccc23)ccc1OC(C)C` [Compound 415], for which the IC50 is no more than 2 µM.

Take `CC(C)(N)c1ccc(C(=O)N2CCC3(CC2)Oc2ccccc2-n2c(C#N)ccc23)cc1` [Compound 323]: the IC50 lay within 2 to 5 µM.

Take `CCc1ccc(C(=O)N2CCC3(CC2)Oc2cc(C(=O)N(C)C)ccc2-n2cccc23)cc1OC` [Compound 863]: the half-maximal inhibitory concentration (IC50) is no more than 2 µM.

In the case of `COc1ccc(Cl)cc1C(=O)N1CCC2(CC1)Oc1cc(Cl)ccc1-n1cccc12` [Compound 858], the half-inhibitory concentration (IC50) was no more than 2 µM.

With `COC[C@@H](C)Oc1ccc(C(=O)N2CCC3(CC2)Oc2cc(F)ccc2-n2cccc23)cc1OC` [Compound 303], the IC50 was no more than 2 µM.

For the compound `CC(C)Oc1ccc(C(=O)N2CCC3(CC2)Oc2ccccc2-n2c(C(F)(F)F)ccc23)nc1` [Compound 36], the IC50 was no more than 2 µM.

On to `O=C(c1cccnc1N1CCCC1)N1CCC2(CC1)Oc1ccccc1-n1c(C(F)(F)F)ccc12` [Compound 535], for which the half-inhibitory concentration (IC50) is no more than 2 µM.

As to `Cc1cc(C(=O)N2CCC3(CC2)Oc2cccc(F)c2-n2c(C#N)ccc23)ccc1OC(C)C` [Compound 416], the IC50 was no more than 2 µM.

As for `CC(C)(C)c1ccc(C(=O)N2CCC3(CC2)Oc2ccccc2-n2c(C#N)ccc23)cn1` [Compound 849], the IC50 was greater than 5 µM.

As to `Cn1ncc2c1-c1ccccc1OC21CCN(C(=O)c2cccc3c2OCC3)CC1` [Compound 290], the 50% inhibitory concentration (IC50) is no more than 2 µM.

`Cn1ncc2c1-c1ccccc1OC21CCN(C(=O)c2ccc(OC3COC3)c(F)c2)CC1` [Compound 569]: the IC50 was greater than 5 µM.

As to `CC(C)NC(=O)c1ccc(C(=O)N2CCC3(CC2)Oc2ccccc2-c2c3cnn2C)cc1` [Compound 150], the concentration for half-maximal inhibition (IC50) is greater than 5 µM.

For the compound `COc1cccc(F)c1C(=O)N1CCC2(CC1)Oc1ccccc1-n1c2ccc1S(C)(=O)=O` [Compound 614], the half-inhibitory concentration (IC50) was in the range of 2 to 5 µM.

Take `COc1ccc(OC)c(C(=O)N2CCC3(CC2)Oc2cc(Cl)ccc2-n2cccc23)c1` [Compound 189]: the half-maximal inhibitory concentration (IC50) was no more than 2 µM.

Take `CC(C)Oc1ccc(C(=O)N2CCC3(CC2)Oc2ccccc2-c2c3cnn2C)c2ncccc12` [Compound 183]: the IC50 is no more than 2 µM.

For `CC(C)(C)NS(=O)(=O)c1ccc(C(=O)N2CCC3(CC2)Oc2ccccc2-n2c(C#N)ccc23)cc1` [Compound 844], the IC50 was no more than 2 µM.

In the case of `COCCOc1ccc(C(=O)N2CCC3(CC2)Oc2cc(F)ccc2-n2cccc23)cc1OC` [Compound 305], the IC50 is no more than 2 µM.
